Assay results reported in patent US20150216860A1, “THERAPEUTIC AGENT FOR SYSTEMIC BONE DISEASE AND USE THEREOF” (NATIONAL UNIVERSITY CORPORATION NAGOYA INIVERSITY, priority 2013, published 2015).

Experiments:
FGFR3 signaling = conditions: cited from earlier work
normal mouse [1] = experiment: Internal administration to normal pregnant mouse, neonatal mouse evaluated; type: in vivo; conditions: in feed to pregnant mouse from day 14 of pregnancy, day 5 after birth
Protocol: (§1) Meclizine was internally administered to a normal pregnant mouse from day 14 of pregnancy (2 mg of meclizine is contained in 5 g of feed), and the body length and extremity length of the neonatal mouse on day 5 after birth were evaluated. On the other hand, meclizine was internally administered to a normal mouse from week 2 after birth, and the mouse was evaluated in the same manner on week 5.

[2] = tested on: HCS-2/8 cells expressing FGFR3-K650E (TD); experiment: Growth assay of HCS-2/8 cells expressing FGFR3-K650E; type: cell-based, human; conditions: for integrated intensities of Venus signals: K650E-expressing HCS-2/8, 72 hours
Description: (§2) The pRK7-FGFR3-WT, -K650E, and -K650M vectors expressing wild-type and mutant FGFR3 (Reference 29) were kindly provided by Dr. Pavel Krejci (Medical Genetics Institute, Cedars-Sinai Medical Center, LA). The pRK7-FGFR3-G380R was constructed by the QuikChange site-directed mutagenesis kit (Stratagene). The wild-type and mutant FGFR3 cDNAs were excised from pRK7-FGFR3 vectors by double digestion with HindIII and BamHI. The fragments were cloned into the lentivirus vector, CSII-CMV-MCS-IRES2-Venus using the NheI and BamHI sites. CSII-CMV-MCS-IRES2-Venus was kindly provided by Dr. Hiroyuki Miyoshi (Riken BioResource Center, Tsukuba, Japan.). The HindIII site of the insert and the NheI site of the vector were blunted using Quick Blunting Kit (New England Biolabs) before ligation. HEK293 cells were plated in 150-mm dishes the day before transfection. We introduced the pLP1, pLP2, pLP/VSVG plasmids (ViraPower Packaging Mix, Invitrogen), and the CSII-CMV-MCS-IRES2-Venus vector into HEK293 cells with Lipofectamine 2000 (Invitrogen) according to the manufacturer's protocols. At 48 hours after transfection, we filtered the media containing the virus particles using the Millex-HV 0.45 μm PVDF filters (Millex) and purified lentivirus using two steps of ultracentrifugation (Beckman Coulter). The lentivirus was added to the medium of HCS-2/8 or ATDC5 cells. After 48 hours, we confirmed that more than 90% of cells were positive for Venus signals.
HCS-2/8 (Reference 31) cells were seeded in 96-well tissue culture plates. HCS-2/8 cells were then infected with lentivirus expressing either FGFR3-WT, -K650E, or -K650M. After 48 hours, the numbers of cells were estimated by MTS assay. In addition, ˜1×10^5 HCS-2/8 cells in a 12-well tissue plate were introduced with lentivirus expressing FGFR3-K650E. After 72 hours, the fluorescence intensity of the Venus protein was quantified by the ArrayScan VTI HCS Reader (Thermo Scientific).

[3] = tested on: ATDC5 cells expressing FGFR3-G380R (ACH); experiment: Micromass culture of ATDC5 cells expressing FGFR3-G380R; type: cell-based, mouse; conditions: six days, 20 μM meclizine
MEK1/2 phosphorylation = experiment: Western blotting of MEK phosphorylation in FGF2-treated RCS cells; type: cell-based, rat; conditions: 20 μM pretreatment 30 min, 5 ng/ml FGF2 5 min
Protocol: (§3) RCS cells were treated with 20 μM meclizine for 30 min before adding 5 ng/ml FGF2 (“Vehicle” is no treatment group). After 5 min, cells were lysed in the ice-cold RIPA Lysis Buffer (Santa Cruz) supplemented with proteinase inhibitors. Whole cell lysates were separated on SDS-PAGE and transferred to a nitrocellulose membrane. The phosphorylation levels of molecules in the MAPK pathway were determined by Western blotting using the following antibodies: ERK1/2, phospho-ERK1/2(Thr^202/Tyr^204), MEK1/2, and phospho-MEK1/2(Ser^217/221) (Cell Signaling).

FGF2-treated RCS cells [4] = experiment: RCS growth arrest assay (MTS); type: cell-based, rat; conditions: for cell toxicity in RCS cells: 50 μM
Protocol: (§4) RCS cells, which were kindly provided from Dr. Pavel Krejci (Medical Genetics Institute, Cedars-Sinai Medical Center, LA), were cultured in Dulbecco's Modified Eagle's Medium (DMEM, Invitrogen) supplemented with 10% fetal bovine serum (FBS, Thermo Scientific) (Reference 14). For the RCS growth arrest assays, ˜5×10^3 cells were seeded in 96-well culture plates (Falcon) and incubated for 48 hours in the presence of 10 μM of 1,186 FDA-approved chemical compounds (Prestwick Chemical) and 5 ng/ml of FGF2 (R&D Systems). Cell proliferation was quantified by MTS assay (Cell 96 AQueus One Solution Cell Proliferation Assay, Promega) according to the manufacturer's instructions.

ERK1/2 phosphorylation = experiment: Western blotting of ERK phosphorylation in FGF2-treated RCS cells; type: cell-based, rat; conditions: 20 μM pretreatment 30 min, 5 ng/ml FGF2 5 min
Protocol: as §3

[5] = tested on: Mmp10, Mmp13, and Adamts1 mRNA; experiment: Real-time RT-PCR of matrix proteinases in FGF2-treated RCS cells; type: cell-based, rat; conditions: FGF2 four hours; 20 μM meclizine or 0.2 μM CNP
Protocol: Total RNA was isolated from FGF2-treated RCS cells in the presence of 20 μM of meclizine or 0.2 μM of CNP using Trizol. The first strand cDNA was synthesized with ReverTra Ace (Toyobo). We quantified mRNA expression of matrix proteinases (Mmp10, Mmp13, and Adamts1) using LightCycler 480 Real-Time PCR (Roche) and SYBR Green (Takara). The mRNA levels were normalized for that of Gapdh.

[6] = tested on: ischemic injury in the brain and heart; conditions: cited from earlier work
normal mouse [7] = experiment: Internal administration to normal mouse from week 2 after birth; type: in vivo; conditions: administered from week 2 after birth, evaluated week 5
Protocol: as §1

[8] = tested on: RCS cells expressing caERK; experiment: MTS growth assay of RCS cells expressing constitutively active ERK; type: cell-based, rat
Protocol: as §4
(§5) Clones that express constitutively active mutants in the MAPK/ERK pathway, pcDNA4Myc-ERK2(PD), pcDNA3HA-MEK1(DD), and pcDNA3Flag-C-rafΔN (Reference 30), were kindly provided by Dr. Mutsuhiro Takekawa (Medical Science Institute, Tokyo University, Japan). The inserts were digested with BamHI and XhoI, and were cloned into the CSII-CMV-MCS-IRES2-Venus at the BamHI sites after blunting all digested ends. Lentivirus particles were generated as described above and were applied to RCS cells.

[9] = tested on: RCS cells expressing caRAF; experiment: MTS growth assay of RCS cells expressing constitutively active RAF; type: cell-based, rat
Protocol: as §4, §5

[10] = tested on: HCS-2/8 cells expressing FGFR3-K650M (SADDAN); experiment: Growth assay of HCS-2/8 cells expressing FGFR3-K650M; type: cell-based, human; conditions: 20 μM
Description: as §2, with “At 48 hours after transfection, we filtered the media containing the virus particles using the Millex-HV 0.45 μm PVDF filters (Millex) and purified lentivirus using two steps of ultracentrifugation (Beckman Coulter). The lentivirus was added to the medium of HCS-2/8 or ATDC5 cells. After 48 hours, we confirmed that more than 90% of cells were positive for Venus signals.” left out
HCS-2/8 (Reference 31) cells were seeded in 96-well tissue culture plates. […] After 72 hours, the fluorescence intensity of the Venus protein was quantified by the ArrayScan VTI HCS Reader (Thermo Scientific).

[11] = tested on: RCS cells expressing caMEK; experiment: MTS growth assay of RCS cells expressing constitutively active MEK; type: cell-based, rat
Protocol: as §4, §5

embryonic tibiae = experiment: Bone explant culture of embryonic tibiae; parameters: species or system mouse; conditions: for longitudinal length of embryonic tibiae with FGF2: FGF2 100 ng/ml, day 6, meclizine 20 μM, CNP 0.2 μM
Protocol: For bone explant culture, tibiae were dissected under the microscope from wild-type mouse embryos on E16.5, placed in 96-well plates, and cultured in α-minimal essential medium (Invitrogen) supplemented with 0.2% bovine serum albumin, 1 mM β-glycerophosphate, and 50 μg/ml ascorbic acid. Embryonic tibiae were further treated with 100 ng/ml FGF2 in the presence or absence of 20 μM meclizine or 0.2 μM CNP for 6 days, then fixed in 10% formaldehyde in phosphate-buffered saline, demineralized with 0.5 M EDTA, and embedded in paraffin. Sections were stained with hematoxylin-eosin and Alcian blue. Images were taken with the SZ61 microscope (Olympus) equipped with the XZ-1 digital camera (Olympus). The longitudinal length of bone, which was defined as the length between proximal and distal articular cartilage, was measured using ImageJ (NIH).

FGF2-treated RCS cells [12] = experiment: Alcian blue staining of FGF2-treated RCS cells; type: cell-based, rat; conditions: 5 ng/ml FGF2, 72 hours; meclizine 10 μM or 20 μM, CNP 0.2 μM
Protocol: For Alcian blue staining, growing RCS cells in 12-well plates were added with 5 ng/ml FGF2 and also with either 10 μM meclizine or 0.2 μM CNP (Calbiochem). After 72 hours, cells were fixed with methanol for 30 minutes at −20° C., and stained overnight with 0.5% Alcian Blue 8 GX (Sigma) in 1 N HCl. For quantitative analyses, Alcian blue-stained cells were lysed in 200 μl of 6 M guanidine HCl for 6 hours at room temperature (Reference 28). The optical density of the extracted dye was measured at 610 nm using PowerScan 4 (DS Pharma Biomedical).

[13] = in vivo; cited from earlier work
Fgfr3^Y367C/+ mice = conditions: subcutaneous administration; cited from earlier work
Fgfr3^ach mice = conditions: continuous intravenous infusion; cited from earlier work

O=C(Nc1cc(C(=O)Nc2ccc(S(=O)(=O)O)cc2S(=O)(=O)O)cc(C(=O)Nc2ccc(S(=O)(=O)O)cc2S(=O)(=O)O)c1)Nc1cc(C(=O)Nc2ccc(S(=O)(=O)O)cc2S(=O)(=O)O)cc(C(=O)Nc2ccc(S(=O)(=O)O)cc2S(=O)(=O)O)c1 [NF449]
FGFR3 signaling in RCS chondrocytes (FGFR3 signaling): inhibits FGFR3 signaling

Cc1cccc(CN2CCN(C(c3ccccc3)c3ccc(Cl)cc3)CC2)c1 (stereo not shown) [meclizine, 1-[(4-chlorophenyl)phenylmethyl]-4-[(3-methylphenyl)methyl]piperazine]
body length of neonatal mouse (normal mouse [1]): increase
length of superior and inferior limbs of neonatal mouse (normal mouse [1]): increase
cellular toxicity in K650E-expressing HCS-2/8 ([2]; 20 μM): without apparent cellular toxicity
growth arrest of K650E-expressing HCS-2/8 ([2]; 20 μM, 48 hours, MTS assay): partially but significantly rescued the growth arrest
integrated intensities of Venus signals [2]: significantly increased
levels of glycosaminoglycans (Alcian blue, 610 nm absorbance) [3]: significantly increased the levels of glycosaminoglycans
MEK1/2 phosphorylation (MEK1/2 phosphorylation): remained unchanged
RCS proliferation, concentration dependence (FGF2-treated RCS cells [4]; 0, 1, 2, 5, 10, 20, and 50 μM, 5 ng/ml FGF2, 48 hours, MTS assay): dose-dependent increases
increase in RCS proliferation (FGF2-treated RCS cells [4]; 10 μM compound, 5 ng/ml FGF2, 48 hours, MTS assay): ≥ 1.4 fold
cell toxicity in RCS cells (FGF2-treated RCS cells [4]): cell toxicity was evident
cell toxicity in RCS cells (FGF2-treated RCS cells [4]; listed as Meclizine): slight toxicity
FGF2-mediated ERK1/2 phosphorylation (ERK1/2 phosphorylation): attenuated
expressions of Mmp10, Mmp13, and Adamts1 [5]: significantly suppressed
cytoprotective activity against ischemic injury [6]: cytoprotective activities
body length (normal mouse [7]): increase
tail length (normal mouse [7]): increase
caERK-mediated growth inhibition [8]: had no effect
caRAF-mediated growth inhibition [9]: rescued
cellular toxicity in K650M-expressing HCS-2/8 [10]: without apparent cellular toxicity
growth arrest of K650M-expressing HCS-2/8 ([10]; 48 hours, MTS assay): partially but significantly rescued the growth arrest
caMEK-mediated growth inhibition [11]: rescued
longitudinal length of embryonic tibiae with FGF2 (embryonic tibiae): significantly attenuated FGF2-mediated growth inhibition
length of tibia without FGF2 treatment (embryonic tibiae; without FGF2, day 6, 20 μM): increased the length of tibia
Alcian blue staining and chondrocyte-like cell shape (FGF2-treated RCS cells [12]): restored

BMN111: CNP analog with extended plasma half-life (PGQEHPNARKYKGANKKGLSKGCFGLKLDRIGSMSGLGC; chains of the INN, looked up)
plasma half-life [13]: extended
bone growth in Fgfr3^Y367C/+ mice (Fgfr3^Y367C/+ mice): significant recovery of bone growth

CNP: C-type natriuretic peptide, potent antagonist of FGFR3 signaling, used as positive control
integrated intensities of Venus signals [2]: increased the integrated Venus signal intensities
levels of glycosaminoglycans (Alcian blue, 610 nm absorbance) [3]: increased the Alcian blue staining
expressions of Mmp10, Mmp13, and Adamts1 [5]: significantly suppressed
half-life [13]: very short
dwarfism of Fgfr3^ach mice (Fgfr3^ach mice): successfully normalized the dwarfism
longitudinal length of embryonic tibiae with FGF2 (embryonic tibiae): significantly attenuated FGF2-mediated growth inhibition
Alcian blue staining and chondrocyte-like cell shape (FGF2-treated RCS cells [12]): approximated that of FGF2-negative cells
